Format in all cases: cell-based
Common to all, as to details: 24 hours

In one assay the test system is TSP-1. The assay can be described thus: Immunoblot of TSP-1 in conditioned media of human TM cells. How it is done:
(§1) FIGS. 5A-E. AICAR suppresses ECM proteins in primary human TM cells under basal and TGF-β2 stimulatory conditions. (A) Representative immunoblots of ECM proteins from conditioned media (CM) of human TM cells treated for 24 hours with PBS vehicle or 0.5 mM AICAR and (B) integrated band intensities calculated from those immunoblots. (C) Representative immunoblots of ECM proteins from CM of human TM cells under stimulation with 2.5 ng/mL TGF-β2. Cells were pre-incubated for 1 hour with PBS or 0.5 mM AICAR prior to full 24-hour treatment. (D) Mean integrated band intensities. Data in panels B and D are expressed as mean±SEM (*p<0.05 vs. PBS vehicle by student t-test; n=5-7). (E) Representative 10% acrylamide gels stained with Coomassie Brilliant Blue as a loading control. […]
(§2) At the conclusion of each experiment for matricellular and ECM protein detection, conditioned media (CM) from TM cell cultures was harvested and centrifuged at 5000 rpm for 10 minutes at 4° C. The supernatant was then concentrated (Amicon Ultra-4 Filter Unit, 10 kDa; Millipore, Milford, Mass.), and protein content quantified using the DC Protein Assay kit adhering to manufacturer's protocols (Bio-Rad, Hercules, Calif.). […] Samples were then centrifuged at 14,000 rpm for 15 minutes at 4° C. and protein content quantified. […]
On the technique in general: Immunoblotting shows a protein as a band on a membrane.

A further assay relates to collagen I. The assay can be described thus: Immunoblot of collagen I in conditioned media of human TM cells. How it is done:
as §1, §2

In another assay the test system is collagen IV. As to the kind of experiment: Immunoblot of collagen IV in conditioned media of human TM cells. As for the experimental part:
as §1, §2

[1] abbreviates: 0.5 mM AICAR vs PBS vehicle, basal.
[2] abbreviates: 0.5 mM AICAR, under TGF-β2 stimulation with 2.5 ng/mL.

The record followed here is patent publication US20170020909A1, “METHODS OF TREATING GLAUCOMA USING AMP-ACTIVATED PROTEIN KINASE (AMPK) ACTIVATORS” (Massachusetts Eye and Ear Infirmary, priority 2014, published 2017).

For the compound `NC(=O)c1ncn([C@@H]2O[C@H](CO)[C@@H](O)[C@H]2O)c1N` [AICAR, 5-Aminoimidazole-4-carboxamide riboside], the “change in TSP-1 (mean integrated band intensity)” value in the assay on TSP-1 (setting [1]) was “no change”. In addition, in the assay with TSP-1 (setting [2]), the “change in TSP-1 levels” value was “no change”. The “decrease in collagen I (mean integrated band intensity)” value in the assay with collagen I (setting [1]) is given as 70%. Besides, the “decrease in collagen I level” value in the assay on collagen I (setting [2]) stood at 26%. For the same compound, in the assay on collagen IV (setting [1]), the “decrease in collagen IV (mean integrated band intensity)” value was 52%. Also, the “decrease in collagen IV level” value in the assay with collagen IV (setting [2]) came out at 34%.
